The experiment can be described thus: Phase 2 clinical trial of M1Pram vs Humalog in subjects with type 1 diabetes: body weight change after 16 weeks. The experiment is classed as in vivo, human. The method, then: A phase 2 clinical trial was conducted to confirm the efficacy and safety of M1Pram in subjects with type 1 diabetes (NCT04816890).
The primary objective of the trial was to compare the efficacy of prandial use of M1Pram to Humalog® (insulin lispro) on body weight change after 16 weeks of optimised titration, in combination with a basal insulin.
In addition, exploratory objectives included the comparison of the efficacy of prandial use of M1Pram with Humalog® in subgroups of subjects with a body mass index (BMI) and HbA1c above and below the median at screening.
A post-hoc analysis also included the comparison of the efficacy of prandial use of M1Pram with Humalog® in subgroups of subjects with a body mass index (BMI)>=30 kg/m^2.
The primary endpoint was the body weight change from baseline to week 16 of treatment.
In addition, exploratory endpoints included analysis of the subgroups of the primary endpoint according to BMI and HbA1c below and above the median.
A post-hoc analysis was also performed to analyze the subgroups of the primary endpoint according to BMI>=30 kg/m^2.
This was a multicentric, open-label, randomized, two-arm parallel, active-comparator controlled phase 2 clinical trial evaluating the efficacy and safety of M1Pram in subjects with type 1 diabetes.
Key inclusion criteria included subjects • with T1D • aged between 18 and 64 years • with a Body Mass Index (BMI) between 25.0 and 35.0 kg/m^2, both inclusive, • with HbA1c between 7.0% and 9.5%, both inclusive • with a Diabetes duration of at least 12 months • Using a multiple dosing insulin therapy (MDI) with a basal insulin and a rapid-acting insulin • having at least two meals per day.
80 patients were randomized 1:1 to M1Pram or Humalog®.
The trial consisted in 4 periods: • an optional a run-in period of 2 to 4 weeks for patients not already using the Continuous Glucose Monitoring (CGM) system used in the trial or either insulin degludec or insulin glargine as basal insulins • a 3-week baseline data recording period • after randomization, a treatment period of about 16 weeks (W1 to 16) • and a safety follow-up period of 1 to 2 weeks after the last product administration.
37 subjects completed the trial in the Humalog® arm and 34 in the M1 Pram arm. The subgroups were selected depending on the patients' metrics at screening.

Turning to insulin lispro [Humalog ®], the “Mean BW change in kg (SD)” value reads like this: (All completers, baseline to week 16 of treatment, T1D subjects, prandial use with basal insulin) −0.45 (3.12) kg; (Subgroup BMI <= 28 kg/m^2 at screening, baseline to week 16) −0.69 (3.19) kg; (Subgroup BMI > 28 kg/m^2 at screening, baseline to week 16) −0.17 (3.09) kg; (Subgroup BMI >= 30 kg/m^2 (post-hoc), baseline to week 16) −0.57 (3.60) kg; (Subgroup HbA1c <= 7.6% at screening, baseline to week 16) −0.87 (2.20) kg; (Subgroup HbA1c > 7.6% at screening, baseline to week 16) 0.04 (3.95) kg.

Values taken from patent US20240115663A1, “COMPOSITIONS COMPRISING AT LEAST AN INSULIN AND AN AMYLIN RECEPTOR AGONIST FOR TREATING DIABETES, IN A PATIENT/PERSON HAVING A BMI OF MORE THAN 28 KG/M² AND/OR AN HBA1C OF MORE THAN 7.6%” (ADOCIA, priority 2022, published 2024).
